# ChEMBL document CHEMBL1127878, “Substituted lactam biphenyltetrazoles as angiotensin II mediated antihypertensives” (Bioorg Med Chem Lett, 1994)
# Assays:
# [1] = test system: Rattus norvegicus; test: Tested for total onset time(BP) after peroral administration of 30 mg/kg of dose in spontaneously hypertensive rat; assay type: functional; conditions: route oral
# [2] = molecular target: T1, Type-1 angiotensin II receptor (Oryctolagus cuniculus, UniProt P34976); test: In vitro binding affinity against Angiotensin II receptor in rabbit aorta rings; assay type: tissue-based; conditions: read-out: pA2 (converted)
# T1 sequence (P34976 whole entry): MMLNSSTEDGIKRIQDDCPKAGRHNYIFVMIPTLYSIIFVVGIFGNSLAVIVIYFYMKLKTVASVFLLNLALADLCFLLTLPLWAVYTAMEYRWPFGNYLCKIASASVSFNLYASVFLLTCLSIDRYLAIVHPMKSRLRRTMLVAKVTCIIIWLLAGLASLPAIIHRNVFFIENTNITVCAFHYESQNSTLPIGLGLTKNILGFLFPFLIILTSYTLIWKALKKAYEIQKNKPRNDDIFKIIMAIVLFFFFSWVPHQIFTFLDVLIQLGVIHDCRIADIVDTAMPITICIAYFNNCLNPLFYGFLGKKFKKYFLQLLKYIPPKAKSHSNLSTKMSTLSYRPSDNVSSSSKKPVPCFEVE
# [3] = test system: Rattus norvegicus; test: Tested for total duration time(BP) after peroral administration of 30 mg/kg of dose in spontaneously hypertensive rat; assay type: functional; conditions: route oral
# [4] = test system: Rattus norvegicus; test: Tested for percent of maximal blood pressure drop in high renin rat after peroral administration of 30 mg/kg of dose; assay type: functional; conditions: route oral
# [5] = test system: Rattus norvegicus; test: Tested for percent of maximal blood pressure drop after peroral administration of 30 mg/kg in spontaneously hypertensive rat; assay type: functional; conditions: route oral
# [6] = test system: Rattus norvegicus; test: Tested for total duration time(BP) after peroral administration of 30 mg/kg of dose in high renin rat; assay type: functional; conditions: route oral
# [7] = test system: Rattus norvegicus; test: Tested for total onset time(BP) after peroral administration of 30 mg/kg of dose in high renin rat; assay type: functional; conditions: route oral
# [8] = test system: Rattus norvegicus; test: Dose (iv) required for graded reduction in mean arterial blood pressure in spontaneously hypertensive rat (also, 10 mg/kg); assay type: functional
SMILES,Onset [1] [h],Kb [2] [nM],Duration [3] [h],Max drop [4] [%],Max drop [5] [%],Duration [6] [h],Onset [7] [h],Duration ([6]; 30 mg/kg) [h],Max drop ([4]; 30 mg/kg) [%],Onset ([7]; 30 mg/kg) [h],Onset ([1]; 30 mg/kg) [h],Dose [8] [mg/kg],Duration ([3]; 30 mg/kg) [h],Max drop ([5]; 30 mg/kg) [%]
CCOC(=O)/C=C1\C2C3C=CC(CCC3)C2C(=O)N1Cc1ccc(-c2ccccc2-c2nn[nH]n2)cc1 (configuration not stated),0.25,20,24,96,96,,,,,,,,,
CCOC(=O)/C=C1\C2C3CCC(C3)C2C(=O)N1Cc1ccc(-c2ccccc2-c2nn[nH]n2)cc1 (configuration not stated),,1,,26,,17,1,,,,,,,
CCOC(=O)/C=C1\CC2(CCCC2)C(=O)N1Cc1ccc(-c2ccccc2-c2nn[nH]n2)cc1,,3.16,,20,,3,2,,,,,,,
CCOC(=O)/C=C1\CC(C)(C(C)C)CC(=O)N1Cc1ccc(-c2ccccc2-c2nn[nH]n2)cc1 (configuration not stated),1.25,15.8,5,70,70,,,,,,,,,
CCCCC1(C)CC(=O)N(Cc2ccc(-c3ccccc3-c3nn[nH]n3)cc2)/C(=C/C(=O)OCC)C1 (configuration not stated),0.5,31.6,24,98,98,,,,,,,,,
CCOC(=O)/C=C1\CC2(CCCCCC2)C(=O)N1Cc1ccc(-c2ccccc2-c2nn[nH]n2)cc1,1.5,3.98,16,31,80,23,0.75,,,,,,,
CCOC(=O)/C=C1\CC2(CCCCC2)C(=O)N1Cc1ccc(-c2ccccc2-c2nn[nH]n2)cc1,,12.6,,26,,17,1,,,,,,,
CCCC1(CC)CC(=O)N(Cc2ccc(-c3ccccc3-c3nn[nH]n3)cc2)/C(=C/C(=O)OCC)C1 (configuration not stated),3,12.6,6,18,18,,,,,,,,,
CCOC(=O)/C=C1\CC2(CCCC2)CC(=O)N1Cc1ccc(-c2ccccc2-c2nn[nH]n2)cc1,,12.6,,46,,21,2.5,,,,,,,
CCOC(=O)/C=C1\CC(C)(C)CC(=O)N1Cc1ccc(-c2ccccc2-c2nn[nH]n2)cc1,,39.8,,17,,5,2,,,,,,,
CCOC(=O)/C=C1\CC2(CCCCC2)CC(=O)N1Cc1ccc(-c2ccccc2-c2nn[nH]n2)cc1,0.25,5.01,8,100,100,,,,,,,,,
CCCCC1(CC)CC(=O)N(Cc2ccc(-c3ccccc3-c3nn[nH]n3)cc2)/C(=C/C(=O)OCC)C1 (configuration not stated),0.25,100,8,55,55,,,,,,,,,
CCOC(=O)/C=C1\C2C3C=CC(CC3)C2C(=O)N1Cc1ccc(-c2ccccc2-c2nn[nH]n2)cc1 (stereo in doubt; 5),,6.31,,,,,,17,29,1.75,,,,
CCOC(=O)/C=C1\C2C3C=CC(CC3)C2C(=O)N1Cc1ccc(-c2ccccc2-c2nn[nH]n2)cc1 (stereo in doubt; 7),1,10,13,,86,,,10,43,0.25,,,,
CCOC(=O)/C=C1\CC(C)(CC)CC(=O)N1Cc1ccc(-c2ccccc2-c2nn[nH]n2)cc1 (stereo in doubt; 9),,1,,,,<24,0.25,,100,,0.25,3,24,100
CCOC(=O)/C=C1\CC(CC)(CC)CC(=O)N1Cc1ccc(-c2ccccc2-c2nn[nH]n2)cc1 (stereo in doubt; 11),,3.98,,,,,,,35,,0.75,,15,35
CCOC(=O)/C=C1\CC(C)(CC)CC(=O)N1Cc1ccc(-c2ccccc2-c2nn[nH]n2)cc1 (stereo in doubt; 13),,2.51,,,,,,,58,,0.5,,16,58
CCOC(=O)/C=C1\CC(CC)(CC)CC(=O)N1Cc1ccc(-c2ccccc2-c2nn[nH]n2)cc1 (stereo in doubt; 16),,7.94,,,,,,,100,,0.25,,24,100
CCCCc1nc(Cl)c(CO)n1Cc1ccc(-c2ccccc2-c2nnn[nH]2)cc1 [LOSARTAN],2,,24,100,100,24,2,,,,,,,
